Results published in ChEMBL document CHEMBL6182863, “Discovery of novel rigid STING PROTAC degraders as potential therapeutics for acute kidney injury” (Eur J Med Chem, 2025).
≈ marks a conversion by molar mass, not a printed value. Calls of active or inactive are those of the source. The calls are words filed in the database; no cut-off is given here.

Key:
[1] = target: Transcription factor p65 (Homo sapiens) (UniProt Q04206); experiment: Inhibition of NF-kappaB P65 nuclear translocation in human HK-2 cells at 0.25 to 5 uM by DAPI staining based fluorescence microscopic analysis; assay type: cell-based; settings: dose 0.25-5 µM
Sequence of Transcription factor p65 (Homo sapiens) (Q04206 whole entry): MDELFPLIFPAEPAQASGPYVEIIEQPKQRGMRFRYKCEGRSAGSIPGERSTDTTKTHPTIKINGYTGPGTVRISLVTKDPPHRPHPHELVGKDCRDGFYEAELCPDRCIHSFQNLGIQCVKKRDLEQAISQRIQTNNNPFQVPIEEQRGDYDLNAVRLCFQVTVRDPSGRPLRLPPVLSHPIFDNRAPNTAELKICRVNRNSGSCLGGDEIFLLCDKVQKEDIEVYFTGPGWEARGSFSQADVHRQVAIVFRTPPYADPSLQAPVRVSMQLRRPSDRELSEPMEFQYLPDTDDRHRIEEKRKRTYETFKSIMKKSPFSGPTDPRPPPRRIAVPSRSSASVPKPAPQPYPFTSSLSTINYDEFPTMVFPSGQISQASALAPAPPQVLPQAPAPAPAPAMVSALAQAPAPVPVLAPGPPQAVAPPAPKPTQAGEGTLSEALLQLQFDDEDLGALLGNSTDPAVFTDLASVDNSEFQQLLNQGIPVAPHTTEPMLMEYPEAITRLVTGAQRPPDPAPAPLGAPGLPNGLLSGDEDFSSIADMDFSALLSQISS

[2] = target: T1, Protein cereblon/Stimulator of interferon genes protein (Homo sapiens, UniProt Q96SW2+Q86WV6); experiment: PROTAC activity at CRBN/STING in human THP-1 cells assessed as induction of STING degradation by Western blotting analysis; assay type: cell-based; settings: time 1-48 hrs
T1 sequence (Q86WV6 whole entry, looked up): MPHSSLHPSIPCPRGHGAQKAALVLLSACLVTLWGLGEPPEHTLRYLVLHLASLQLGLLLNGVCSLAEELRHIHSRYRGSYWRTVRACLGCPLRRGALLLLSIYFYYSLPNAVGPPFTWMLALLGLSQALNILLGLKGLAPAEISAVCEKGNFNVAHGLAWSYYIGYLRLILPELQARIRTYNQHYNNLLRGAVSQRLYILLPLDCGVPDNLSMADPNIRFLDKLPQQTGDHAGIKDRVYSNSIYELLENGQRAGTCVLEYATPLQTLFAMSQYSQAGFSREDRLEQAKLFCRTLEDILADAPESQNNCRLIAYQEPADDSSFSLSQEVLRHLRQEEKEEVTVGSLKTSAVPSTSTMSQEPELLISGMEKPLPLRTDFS
T1 sequence (Q96SW2 whole entry, looked up): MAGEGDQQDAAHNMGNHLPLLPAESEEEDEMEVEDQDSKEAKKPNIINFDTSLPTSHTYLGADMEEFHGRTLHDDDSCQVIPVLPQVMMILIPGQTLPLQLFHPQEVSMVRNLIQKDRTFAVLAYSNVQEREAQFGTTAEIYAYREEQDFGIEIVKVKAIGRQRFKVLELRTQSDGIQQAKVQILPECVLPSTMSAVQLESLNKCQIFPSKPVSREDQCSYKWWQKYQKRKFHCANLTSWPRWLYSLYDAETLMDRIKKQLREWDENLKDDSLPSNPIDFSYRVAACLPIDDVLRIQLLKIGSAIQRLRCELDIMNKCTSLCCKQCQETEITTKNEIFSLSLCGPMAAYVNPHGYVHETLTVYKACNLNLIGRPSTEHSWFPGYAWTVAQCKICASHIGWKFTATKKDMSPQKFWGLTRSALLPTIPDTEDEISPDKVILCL

[3] = target: T1, Protein cereblon/Stimulator of interferon genes protein; experiment: PROTAC activity at CRBN/STING in human THP-1 cells assessed as induction of STING degradation at 5 uM incubated for 24 hrs in presence of MG132 by Western blotting analysis; assay type: cell-based
HK-2 [4] = experiment: Inhibition of STING downstream signal pathway in cisplatin stimulated human HK-2 cells assessed as reduction in p-IRF3 level by […] analysis; assay type: cell-based; settings: dose 1.25-5 µM
HK-2 [5] = experiment: Inhibition of STING downstream signal pathway in cisplatin stimulated human HK-2 cells assessed as reduction in P-P65 level by […] analysis; assay type: cell-based; settings: dose 1.25-5 µM
THP-1 [6] = experiment: PROTAC activity at CRBN/AKT in human THP-1 cells assessed as induction of AKT degradation at 1.25 to 20 uM measured after 24 hrs by Western blotting analysis; assay type: cell-based; settings: dose 1.25-20 µM
HEK-293T = experiment: Cytotoxicity against human HEK293T cells assessed as reduction in cell viability at 0.5 to 120 uM incubated for 24 hrs by MTT assay; assay type: toxicity, cell-based; settings: dose 0.5-120 µM
H9c2 = experiment: Cytotoxicity against rat H9c2 cells assessed as reduction in cell viability at 0.5 to 120 uM incubated for 24 hrs by MTT assay; assay type: toxicity, cell-based; settings: h9c2, 24 h, dose 0.5-120 µM
[7] = Acute toxicity in C57BL/6J mouse assessed as change in body weight at 43 mg/kg; assay type: organism-based; settings: in vivo
[8] = Acute toxicity in C57BL/6J mouse assessed as change in body weight at 61 mg/kg; assay type: organism-based; settings: in vivo
[9] = Acute toxicity in C57BL/6J mouse assessed as change in body weight at 179 mg/kg; assay type: organism-based; settings: in vivo
[10] = Acute toxicity in C57BL/6J mouse assessed as mortality at 30 to 179 mg/kg; assay type: organism-based; settings: in vivo, dose 30-179 mg/kg
[11] = Acute toxicity in C57BL/6J mouse assessed as survival at 30 to 179 mg/kg; assay type: organism-based; settings: in vivo, dose 30-179 mg/kg
[12] = Acute toxicity in C57BL/6J mouse; settings: in vivo, dose 30 mg/kg
HK-2 [13] = experiment: Inhibition of ROS formation in human HK-2 cells measured after 24 hrs in presence of cisplatin by DAPI staining based fluorescence microscopic analysis; assay type: functional, cell-based; settings: dose 1.25-5 µM
[14] = Water solubility of the compound at 2 mg by HPLC analysis; assay type: physicochemical
[15] = Metabolic stability in human liver microsomes assessed as half life; assay type: ADME, Microsome
[16] = Metabolic stability in human liver microsomes assessed as intrinsic clearance per gram of protein; assay type: ADME, Microsome
[17] = AUC (0 to t) in male Sprague-Dawley rat at 2 mg/kg, iv measured after 12 hrs by LC-MS/MS analysis; assay type: ADME, organism-based; settings: in vivo
[18] = Half life in male Sprague-Dawley rat at 2 mg/kg, iv measured after 12 hrs by LC-MS/MS analysis; assay type: ADME, organism-based; settings: in vivo
[19] = Tmax in male Sprague-Dawley rat at 2 mg/kg, iv measured after 12 hrs by LC-MS/MS analysis; assay type: ADME, organism-based; settings: in vivo
[20] = Cmax in male Sprague-Dawley rat at 2 mg/kg, iv measured after 12 hrs by LC-MS/MS analysis; assay type: ADME, organism-based; settings: in vivo
[21] = Toxicity in cisplatin-induced acute kidney injury C57BL/6J mouse model assessed as morphological abnormality in liver at 25 to 50 mg/kg, ip by H and E staining based analysis; assay type: organism-based; settings: in vivo, dose 25-50 mg/kg
[22] = Toxicity in cisplatin-induced acute kidney injury C57BL/6J mouse model assessed as morphological abnormality in spleen at 25 to 50 mg/kg, ip by H and E staining based analysis; assay type: organism-based; settings: in vivo, dose 25-50 mg/kg
Mus musculus [23] = experiment: Renoprotective activity against cisplatin-induced C57BL/6J mouse acute kidney injury model assessed as recovery of body weight administered intraperitoneally and measured after 72 hrs; assay type: functional, organism-based; settings: dose 25-50 mg/kg, route ip
Mus musculus [24] = experiment: Renoprotective activity against cisplatin-induced C57BL/6J mouse acute kidney injury model assessed as reduction in kidney weight at 25 to 50 mg/kg, ip measured after 72 hrs; assay type: functional, organism-based; settings: dose 25-50 mg/kg
Mus musculus [25] = experiment: Renoprotective activity against cisplatin-induced C57BL/6J mouse acute kidney injury model assessed as reduction in BUN level at 25 to 50 mg/kg, ip measured after 72 hrs; assay type: functional, organism-based; settings: dose 25-50 mg/kg
Mus musculus [26] = experiment: Renoprotective activity against cisplatin-induced C57BL/6J mouse acute kidney injury model assessed as reduction in creatinine level at 25 to 50 mg/kg, ip measured after 72 hrs; assay type: functional, organism-based; settings: dose 25-50 mg/kg
Mus musculus [27] = experiment: Renoprotective activity against cisplatin-induced C57BL/6J mouse acute kidney injury model assessed as decrease in body weight at 25 to 50 mg/kg, ip measured after 72 hrs; assay type: functional, organism-based; settings: dose 25-50 mg/kg
Mus musculus [28] = experiment: Renoprotective activity against cisplatin-induced C57BL/6J mouse acute kidney injury model assessed as decrease in fecal occult blood at 25 to 50 mg/kg, ip measured after 72 hrs; assay type: functional, organism-based; settings: dose 25-50 mg/kg
[29] = target: T2, Protein cereblon/Stimulator of interferon genes protein (Mus musculus) (UniProt Q3TBT3+Q8C7D2); experiment: In vivo inhibition of STING/TBK1/NF-kappaB signaling in C57BL/6J mouse assessed as decrease in STING protein level in kidney at 25 to 50 mg/kg, ip measured after 72 hrs by Western blotting analysis; assay type: functional, organism-based; settings: dose 25-50 mg/kg
T2 sequence (Q3TBT3 whole entry, looked up): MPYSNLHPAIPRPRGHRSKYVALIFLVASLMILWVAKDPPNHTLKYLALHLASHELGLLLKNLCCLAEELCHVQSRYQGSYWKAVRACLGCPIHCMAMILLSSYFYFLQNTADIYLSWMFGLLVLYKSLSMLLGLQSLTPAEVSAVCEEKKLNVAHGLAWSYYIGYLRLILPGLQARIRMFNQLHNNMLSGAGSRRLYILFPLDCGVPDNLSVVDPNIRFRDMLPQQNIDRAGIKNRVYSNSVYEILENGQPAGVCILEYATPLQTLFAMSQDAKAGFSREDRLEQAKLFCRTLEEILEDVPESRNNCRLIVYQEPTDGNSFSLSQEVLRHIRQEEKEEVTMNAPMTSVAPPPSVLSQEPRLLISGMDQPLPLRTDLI
T2 sequence (Q8C7D2 whole entry, looked up): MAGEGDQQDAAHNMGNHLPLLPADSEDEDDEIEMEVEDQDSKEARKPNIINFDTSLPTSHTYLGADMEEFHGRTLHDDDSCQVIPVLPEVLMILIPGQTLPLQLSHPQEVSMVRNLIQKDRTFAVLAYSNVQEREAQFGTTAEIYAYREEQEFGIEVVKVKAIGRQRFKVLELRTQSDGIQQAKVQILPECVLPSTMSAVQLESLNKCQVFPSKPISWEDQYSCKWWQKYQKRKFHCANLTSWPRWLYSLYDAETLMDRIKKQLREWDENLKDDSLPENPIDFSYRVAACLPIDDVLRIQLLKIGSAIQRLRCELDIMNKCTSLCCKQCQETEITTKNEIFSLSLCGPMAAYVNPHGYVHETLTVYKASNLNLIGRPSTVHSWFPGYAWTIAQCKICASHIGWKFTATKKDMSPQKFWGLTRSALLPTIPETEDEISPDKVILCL

[30] = target: T2, Protein cereblon/Stimulator of interferon genes protein (Mus musculus); experiment: In vivo inhibition of STING/TBK1/NF-kappaB signaling in C57BL/6J mouse assessed as decrease in P-TBK1 protein level in kidney at 25 to 50 mg/kg, ip measured after 72 hrs by Western blotting analysis; assay type: functional, organism-based; settings: dose 25-50 mg/kg
[31] = target: T2, Protein cereblon/Stimulator of interferon genes protein (Mus musculus); experiment: In vivo inhibition of STING/TBK1/NF-kappaB signaling in C57BL/6J mouse assessed as decrease in P-P65 protein level in kidney at 25 to 50 mg/kg, ip measured after 72 hrs by Western blotting analysis; assay type: functional, organism-based; settings: dose 25-50 mg/kg
[32] = target: T2, Protein cereblon/Stimulator of interferon genes protein (Mus musculus); experiment: In vivo inhibition of STING/TBK1/NF-kappaB signaling in C57BL/6J mouse assessed as decrease in serum CXCL10 level at 25 to 50 mg/kg, ip measured after 72 hrs by ELISA; assay type: functional, organism-based; settings: dose 25-50 mg/kg
Mus musculus [33] = experiment: Renoprotective activity against cisplatin-induced C57BL/6J mouse model assessed as reduction in renal injury administered intraperitoneally by H and E staining based analysis; assay type: functional, organism-based; settings: dose 25-50 mg/kg, route ip
THP-1 [34] = experiment: PROTAC activity at CRBN/AMPK in human THP-1 cells assessed as induction of AMPK degradation at 1.25 to 20 uM measured after 24 hrs by Western blotting analysis; assay type: cell-based; settings: dose 1.25-20 µM
THP-1 [35] = experiment: PROTAC activity at CRBN/ERK in human THP-1 cells assessed as induction of ERK degradation at 1.25 to 20 uM measured after 24 hrs by Western blotting analysis; assay type: cell-based; settings: dose 1.25-20 µM

With O=C(/C=C/C(=O)N1CCN(CC2CCN(c3cccc4c3C(=O)N(C3CCC(=O)NC3=O)C4=O)C2)CC1)Nc1ccc(NC(=O)c2ccc([N+](=O)[O-])o2)cc1 (configuration not stated) the inhibition [1] was “Active”, the Activity [2] was “Time-dependent-effect” and the Activity [3] was “inactive”. The inhibition (HK-2 [4]) was “Dose-dependent-effect”, the inhibition (HK-2 [5]) was “Dose-dependent-effect” and the Activity (THP-1 [6]) was “inactive”. For the same molecule, the Activity (HEK-293T) was “Non-toxic”, the Activity (H9c2) was “Non-toxic” and the Activity [7] was 24.2 g. The Activity [8] was 25.3 g, the Activity [9] was 22.8 g and the Activity [10] was “Non-toxic”. The survival [11] was 100%, the LD50 [12] was > 179 mg/kg and the inhibition (HK-2 [13]) was “Dose-dependent-effect”. It also gave a solubility [14] of 3317 ng/mL (≈ 4.41 µM), a half-life [15] of 20.1 min and a CLint [16] of 104 mL/min/g. The AUC(0-t) at 12 h [17] was 729 ng·h/mL, the half-life [18] was 51.6 min and the Tmax [19] was 4.8 min. For the same molecule, the Cmax [20] was 2390 ng/mL, the Activity [21] was “Non-toxic” and the Activity [22] was “Non-toxic”. For the same molecule, the Activity (Mus musculus [23]) was “Dose-dependent-effect”, the Activity (Mus musculus [24]) was “Active” and the Activity (Mus musculus [25]) was “Active”. The Activity (Mus musculus [26]) was “Active”, the Activity (Mus musculus [27]) was “Active” and the Activity (Mus musculus [28]) was “Active”. For the same molecule, the inhibition [29] was “Active”, the inhibition [30] was “Active” and the inhibition [31] was “Active”. For the same molecule, the inhibition [32] was “Active”, the Activity (Mus musculus [33]) was “Dose-dependent-effect” and the Activity (THP-1 [34]) was “inactive”. The Activity (THP-1 [35]) was “inactive”.
